Experiments:
TbrCatL = target: T1, TbrCatL (Trypanosoma brucei rhodesiense, UniProt Q95PM0); assay: TbrCatL enzymatic inhibition assay (cleavage of fluorogenic substrate Z-FR-AMC); format: biochemical; conditions: for TbrCatL 0’ Inhibition / TbrCatL 10’ Inhibition: sheet "Screening results"
T1 construct: Conor Caffrey (University of California San Diego)
Method in brief: (§1)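 Recombinant enzymes assayed by Z-Phe-Arg-AMC cleavage at 25 °C, fluorescence 340/440 nm over 5–7 min, with 10 min or no enzyme–compound preincubation.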

cruzain = cruzain (Trypanosoma cruzi, UniProt P25779); assay: biochemical; conditions: for Cruzain 0’ Inhibition / Cruzain 10’ Inhibition: sheet "Screening results"
Method in brief: as §1

[1] = 0’ (no pre-incubation), sheet Screening results
[2] = 10’ (pre-incubation), sheet Screening results
[3] = 0’ (pre-incubation time), Pathogen Box screening results
[4] = 10’ (pre-incubation time), Pathogen Box screening results
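Further: at 5 µM compound concentration.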

T1 sequence (Q95PM0 entry or part of it): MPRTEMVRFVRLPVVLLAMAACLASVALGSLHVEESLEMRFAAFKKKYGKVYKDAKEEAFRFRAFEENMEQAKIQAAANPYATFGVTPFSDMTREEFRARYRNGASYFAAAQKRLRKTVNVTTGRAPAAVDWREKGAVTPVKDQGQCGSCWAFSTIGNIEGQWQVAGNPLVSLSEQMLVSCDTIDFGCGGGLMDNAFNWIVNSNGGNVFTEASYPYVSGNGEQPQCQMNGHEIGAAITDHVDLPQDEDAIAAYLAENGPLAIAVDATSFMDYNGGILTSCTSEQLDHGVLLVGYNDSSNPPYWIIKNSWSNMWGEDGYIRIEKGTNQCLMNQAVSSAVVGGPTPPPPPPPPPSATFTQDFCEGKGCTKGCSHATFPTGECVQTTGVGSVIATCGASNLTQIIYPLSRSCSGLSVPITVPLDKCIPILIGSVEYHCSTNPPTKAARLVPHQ
Sequence of cruzain (P25779 123-337 limits assumed): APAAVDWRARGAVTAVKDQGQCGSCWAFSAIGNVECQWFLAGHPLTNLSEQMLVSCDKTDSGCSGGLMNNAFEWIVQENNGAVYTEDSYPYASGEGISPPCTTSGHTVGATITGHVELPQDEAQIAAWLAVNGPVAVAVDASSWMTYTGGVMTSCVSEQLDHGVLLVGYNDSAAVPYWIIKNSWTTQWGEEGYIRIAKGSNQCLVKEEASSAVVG

Compound | TbrCatL 0’ Inhibition (TbrCatL; 0’ (pre-incubation time)) [%] | TbrCatL 10’ Inhibition (TbrCatL; 10’ (pre-incubation time)) [%] | Cruzain 0’ Inhibition (cruzain; 0’ (pre-incubation time)) [%] | Cruzain 10’ Inhibition (cruzain; 10’ (pre-incubation time)) [%] | TbrCatL Inhibition 0’ (TbrCatL; [1]) [%] | TbrCatL Inhibition 10’ (TbrCatL; [2]) [%] | Cruzain Inhibition 0’ (cruzain; [1]) [%] | Cruzain Inhibition 10’ (cruzain; [2]) [%] | further results
OC[C@H]1O[C@@H](n2c3ccc(Cl)cc3c3c(-c4cc5ccccc5o4)ncnc32)C(O)[C@H]1O (stereo partly shown) [MMV688921] | 5.5 | 4.4 | 4.7 | 11 |  |  |  |  | 
COc1ccc2nccc(NC(=O)C3CCN(CCc4ccc(Cl)cc4)CC3)c2n1 [MMV688844] | 4 | -1.5 | 1.4 | -1.1 |  |  |  |  | 
CC(C)(C)n1nc(Cc2ccc(F)c(Cl)c2)c2c(N)ncnc21 [MMV688852] |  |  |  |  | -2.7 | -13 | 6 | 0.5 | 
NCC(c1cccs1)S(=O)(=O)c1ccccc1 (stereo not shown) [MMV688557] |  |  |  |  |  |  |  |  | TbrCatL Inhibition 0’ (TbrCatL; [3]): -0.6%; TbrCatL Inhibition 10’ (TbrCatL; [4]): 1.2%; Cruzain Inhibition 0’ (cruzain; [3]): 2.3%; Cruzain Inhibition 10’ (cruzain; [4]): 0.1%
O=C(Nc1nnc(-c2ccc(Cl)s2)o1)c1ccc(Cl)s1 [MMV676501] |  |  |  |  | -3.6 | -11 | -8 | -16 | 
Cc1ncc(-c2ccnc(Nc3ccc(S(C)(=O)=O)cc3)n2)n1C(C)C [MMV676604] |  |  |  |  | 3 | -26 | 22 | 3.2 | 
Cc1[nH]c2cc(F)cc(F)c2c(=O)c1-c1ccc(Oc2ccc(OC(F)(F)F)cc2)cc1 [MMV671636] | 10 | 6.6 | 8 | 17 |  |  |  |  | 
CCOC(=O)c1c(NC(=O)c2c(F)c(F)c(F)c(F)c2F)sc(C(N)=O)c1C [MMV153413] | 1.1 | 39 | 0.7 | 23 |  |  |  |  | 
CN1CCN(c2nccc3[nH]c(-c4cccc(F)c4)cc23)CC1 [MMV393144] | -8.5 | -8 | -15 | -11 |  |  |  |  | 
Cc1nc(-c2ccccn2)nc(N2CCC(Cc3ccccc3)C2)c1Cl (stereo not shown) [MMV659004] | -4.5 | -2.3 | -2 | 12 |  |  |  |  | 
O=C(NC1CCN(c2ccnc3ccccc23)C1)c1cccc(C(F)(F)F)c1 (stereo not shown) [MMV023388] | 10 | 13 | 8 | 14 |  |  |  |  | 
Nc1ccc(C(=O)Nc2ccc(-c3nc4ccccc4o3)cc2)cc1 [MMV007920] | 4.7 | -0.7 | 7 | 11 |  |  |  |  | 
Nc1ncc(Br)cc1-c1nc2cc(Cl)cnc2[nH]1 [MMV676358] | -9 | -2.5 | -2.8 | 8 |  |  |  |  | 
Cc1nc(-c2ccccn2)nc(NCCc2ccc(S(C)(=O)=O)cc2)c1Cl [MMV658993] | -11 | -12 | -6.4 | 9 |  |  |  |  | 
CC(C)(C)OC(=O)N1CCN(c2cc(-c3ccc(Oc4ccccc4)cc3)n[nH]2)CC1 [MMV676057] | -2.3 | -12 | -1.5 | -3.4 |  |  |  |  | 
CC(C)c1ncc(-c2ccncc2)c(C2CCC(CNC(=O)c3cccnc3)CC2)n1 (stereo not shown) [MMV676442] |  |  |  |  | -7.5 | -6 | 4 | 1.2 | 
Cc1cccc(C(=O)Nc2ccnc(N(C)C3CCN(CC(C)C)CC3)c2)c1 [MMV024829] | 4 | 7 | 9 | 7 |  |  |  |  | 
CC(C)n1ncc2c(C(=O)NCC(c3cccs3)N3CCOCC3)cc(-c3ccccc3)nc21 (stereo not shown) [MMV676406] |  |  |  |  | 17 | 15 | 6 | 6 | 
COc1cc(Br)cc2cc(C(=O)Nc3cccc(C(F)(F)F)c3)c(=O)oc12 [MMV688891] | 0 | -2.6 | -4.4 | -0.7 |  |  |  |  | 
CC(C)C(NC(=O)Cc1cccc2ccccc12)C(=O)Nc1cccc(C#N)c1 (stereo not shown) [MMV020591] |  |  |  |  | -8 | -3.7 | -1.7 | -0.4 | 
CCN(CC)S(=O)(=O)c1ccc(C(=O)Nc2cc(C)nn2-c2nc(C)c(C)c(=O)[nH]2)cc1 [MMV595321] |  |  |  |  | -23 | -29 | -13 | -3.8 | 
CNC(=O)C1Cc2c([nH]c3cc(Cl)ccc23)C2(CCN(CCc3ccccc3)CC2)N1 (stereo not shown) [MMV031011] | -11 | -8 | -7.5 | -0.7 |  |  |  |  | 

Compound | TbrCatL 0’ Inhibition (TbrCatL; 0’ (pre-incubation time)) [%] | TbrCatL 10’ Inhibition (TbrCatL; 10’ (pre-incubation time)) [%] | Cruzain 0’ Inhibition (cruzain; 0’ (pre-incubation time)) [%] | Cruzain 10’ Inhibition (cruzain; 10’ (pre-incubation time)) [%] | TbrCatL Inhibition 0’ (TbrCatL; [1]) [%] | TbrCatL Inhibition 10’ (TbrCatL; [2]) [%] | Cruzain Inhibition 0’ (cruzain; [1]) [%] | Cruzain Inhibition 10’ (cruzain; [2]) [%] | further results
CCCCCCCCCCCCCCCCOP(=O)([O-])OCC[N+](C)(C)C [MMV688990] |  |  |  |  |  |  |  |  | TbrCatL Inhibition 0’ (TbrCatL; [3]): -2.4%; TbrCatL Inhibition 10’ (TbrCatL; [4]): -12%; Cruzain Inhibition 0’ (cruzain; [3]): -0.1%; Cruzain Inhibition 10’ (cruzain; [4]): 0.6%
CCS(=O)(=O)N(Cc1ccco1)Cc1cc2ccc(C)cc2[nH]c1=O [MMV676398] | 8 | 9 | 6.5 | 28 |  |  |  |  | 
O=C(CN1CCOCC1)Nc1ccc2ncnc(Nc3ccc(OCc4cccc(F)c4)c(Cl)c3)c2c1 [MMV688274] | 13 | 17 | 5.7 | 2.4 |  |  |  |  | 
CN1CCC(c2cc(-c3ccncc3)c(-c3ccc(F)cc3)[nH]2)CC1 [MMV688703] | 6 | 3.6 | 3.7 | 1.9 |  |  |  |  | 
CCc1cc(=O)n(C)c(SC(C)C(=O)Nc2ccc(F)cc2)n1 (stereo not shown) [MMV688980] | -11 | -14 | -3.8 | -0.6 |  |  |  |  | 
CCCn1c(NC(=O)c2ccc3ccccc3n2)nc2ccccc21 [MMV1030799] | -8 | -11 | -3.4 | 2.4 |  |  |  |  | 
CCOc1ccc(-c2nc(NC(=O)CS(=O)(=O)c3ccccc3)sc2C)cc1 [MMV007638] |  |  |  |  | 0.6 | 9 | 7 | 10 | 
Cc1cc(C)c2cc(C(=O)NC3CCCCCCC3)[nH]c2c1 [MMV687146] | -1.1 | -12 | 4.7 | 4.7 |  |  |  |  | 
COc1ccccc1CNC(=O)c1cc(C2CC2)nc2c1cnn2C(C)C [MMV020517] |  |  |  |  | 2.7 | 9 | 4 | 7 | 
Cc1cc(C)cc(COc2ccc3c(C)c(CCC(=O)O)c(=O)oc3c2C)c1 [MMV676476] |  |  |  |  | -17 | -2.6 | 1.9 | -3.3 | 
N#CCN(CCCCN1CCN(c2ccc(F)cc2)CC1)C(=O)OCc1ccccc1 [MMV675997] |  |  |  |  | 1.6 | 5 | 1.2 | 3.2 | 
Cc1ccc(-c2cc(C(=O)Nc3cccnc3)c3cc(Br)ccc3n2)cc1 [MMV016838] |  |  |  |  |  |  |  |  | TbrCatL Inhibition 0’ (TbrCatL; [3]): 1.7%; TbrCatL Inhibition 10’ (TbrCatL; [4]): 0.3%; Cruzain Inhibition 0’ (cruzain; [3]): 4.3%; Cruzain Inhibition 10’ (cruzain; [4]): 7.6%
CCC(Sc1nc2ccccc2o1)C(=O)Nc1nnc(C)s1 (stereo not shown) [MMV611037] | 6 | 5 | 0.2 | 4 |  |  |  |  | 
COc1ccc(C2=NCCN2)cc1-c1cn(-c2cccc(C3=NCCN3)c2)nn1 [MMV688547] |  |  |  |  | 6 | 4 | 10 | 13 | 
Cn1c(=O)c2c(S(C)(=O)=O)snc2n(C)c1=O [MMV687251] | 2.7 | 0.4 | 12 | 2.8 |  |  |  |  | 
Cc1ccc2nc(C)c(-c3ccn(Cc4ccccc4)n3)n2c1 [MMV688939] |  |  |  |  |  |  |  |  | TbrCatL Inhibition 0’ (TbrCatL; [3]): -0.4%; TbrCatL Inhibition 10’ (TbrCatL; [4]): -9%; Cruzain Inhibition 0’ (cruzain; [3]): -1.4%; Cruzain Inhibition 10’ (cruzain; [4]): -4%
CC(c1cc(Cl)cc(Cl)c1)N(C)c1ncc2c(N)nc(N)nc2n1 (stereo not shown) [MMV689437] | -12 | 3.6 | -3 | 9 |  |  |  |  | 
CNC(=O)C1Cc2ccccc2N1C(=O)Cc1ccc(F)cc1 (stereo not shown) [MMV188296] |  |  |  |  | 14 | 13 | 10 | 10 | 
Cc1cc(Cl)c(S(=O)(=O)N2CCCC2)cc1OCC(=O)NC1CCCCC1 [MMV006833] | 1.6 | 11 | 3 | 8 |  |  |  |  | 
CC1=Nc2ccc(Cl)cc2C(O)(c2ccc(C)cc2)N1CCN1CCCCC1 (stereo not shown) [MMV688279] | -3 | -5 | -4.5 | 0.1 |  |  |  |  | 
NCCC(O)C(=O)N[C@@H]1C[C@H](N)[C@@H](OC2O[C@H](CN)[C@@H](O)[C@H](O)[C@H]2O)[C@H](O)C1OC1O[C@H](CO)[C@@H](O)[C@H](N)[C@H]1O (stereo partly shown) [MMV687796] |  |  |  |  |  |  |  |  | TbrCatL Inhibition 0’ (TbrCatL; [3]): -9.5%; TbrCatL Inhibition 10’ (TbrCatL; [4]): -6%; Cruzain Inhibition 0’ (cruzain; [3]): -0.8%; Cruzain Inhibition 10’ (cruzain; [4]): -3.6%

Reference: paper PMC9967275, “Screening the Pathogen Box to Discover and Characterize New Cruzain and TbrCatL Inhibitors” (Pathogens, 2023)
